These results are taken from patent publication US9951035B2, “Selective matrix metalloproteinase inhibitors” (University of Notre Dame du Lac, priority 2014, dated 2018).

Where “and” joins values, the source holds several entries; their conditions need not be identical. Equal values may be shown once. Where a name gives a salt, the structure may show the parent alone. Read-outs that look alike come from different tables or passages of the source.

One series deals with ADAM10 (Homo sapiens (Human), UniProt O14672). Nature of the series: Enzyme inhibition studies, ADAM10. The series is classed as biochemical.
ADAM10, sequence (O14672 214-672): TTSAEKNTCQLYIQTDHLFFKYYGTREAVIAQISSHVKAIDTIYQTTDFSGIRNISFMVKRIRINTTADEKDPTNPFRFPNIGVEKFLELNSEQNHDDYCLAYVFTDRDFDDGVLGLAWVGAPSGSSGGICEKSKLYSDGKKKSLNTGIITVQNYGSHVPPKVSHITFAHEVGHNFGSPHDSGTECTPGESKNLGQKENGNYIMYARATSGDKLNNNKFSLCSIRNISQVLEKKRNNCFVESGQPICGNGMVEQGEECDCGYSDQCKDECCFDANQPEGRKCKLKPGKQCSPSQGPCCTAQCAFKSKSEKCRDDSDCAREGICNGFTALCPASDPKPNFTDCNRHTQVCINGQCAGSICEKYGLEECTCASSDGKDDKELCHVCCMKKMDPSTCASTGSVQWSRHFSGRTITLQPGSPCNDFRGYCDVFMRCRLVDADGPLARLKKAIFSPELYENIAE
In a further series the target is ADAM9 (Homo sapiens (Human), UniProt Q13443). Nature of the series: Enzyme inhibition studies, ADAM9. The series is classed as biochemical.
ADAM9, sequence (Q13443 206-697): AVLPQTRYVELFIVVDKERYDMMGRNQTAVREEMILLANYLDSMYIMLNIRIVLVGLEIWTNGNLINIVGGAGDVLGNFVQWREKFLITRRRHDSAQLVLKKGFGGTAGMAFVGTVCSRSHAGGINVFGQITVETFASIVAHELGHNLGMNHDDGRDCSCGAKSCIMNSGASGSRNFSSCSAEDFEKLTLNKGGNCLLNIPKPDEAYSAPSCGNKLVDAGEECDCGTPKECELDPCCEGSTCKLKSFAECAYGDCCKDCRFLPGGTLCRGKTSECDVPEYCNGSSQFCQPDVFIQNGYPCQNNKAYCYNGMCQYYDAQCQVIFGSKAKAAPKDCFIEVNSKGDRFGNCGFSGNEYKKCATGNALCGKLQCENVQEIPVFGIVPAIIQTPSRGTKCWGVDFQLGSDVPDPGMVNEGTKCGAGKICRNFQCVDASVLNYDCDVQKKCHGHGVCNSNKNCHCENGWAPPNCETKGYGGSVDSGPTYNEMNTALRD
Series [1] is described as follows: Pharmacokinetics and brain distribution after single iv dose. As to conditions: for crossing of the blood-brain barrier: in words.
Experimental: (§1) Mice (male CD-1, 6-7 weeks old, ˜30 g body weight, specific pathogen free) were purchased from Charles River Laboratories, Inc. (Wilmington, Mass., USA).
(§2) Samples were analyzed by ultraperformance liquid chromatography (UPLC)/(+)electrospray ionization (ESI)-multiple-reaction monitoring (MRM) with a reversed phase C18 column (Acclaim® RSLC 120 C18, 2.2 μm, 120 Å, 2.1×100 mm, Dionex, Sunnyvale, Calif., USA).
(§3) Quantification of the compounds in plasma and brain was obtained using peak-area ratios of the compounds to the internal standard, and the linear-regression parameters obtained from the calibration curves.
Another series is described as follows: physchem. The note with it: water, thermodynamic from solid.
For series [2] the following is noted: mouse, in vivo, iv, 5 mg/kg.
Experimental: as §1, §2, §3
A further series addresses MMP-1 (Homo sapiens (Human), UniProt P03956). Nature of the series: Enzyme inhibition studies, MMP-1 catalytic domain. The series is classed as biochemical.
A further series has as its target MMP-8 (Homo sapiens (Human), UniProt P22894). Nature of the series: Enzyme inhibition studies, MMP-8 catalytic domain. The series is classed as biochemical.
The target in another series is MMP-7 (Homo sapiens (Human), UniProt P09237). Nature of the series: Enzyme inhibition studies, MMP-7. The series is classed as biochemical.
MMP-7, sequence (P09237 95-267): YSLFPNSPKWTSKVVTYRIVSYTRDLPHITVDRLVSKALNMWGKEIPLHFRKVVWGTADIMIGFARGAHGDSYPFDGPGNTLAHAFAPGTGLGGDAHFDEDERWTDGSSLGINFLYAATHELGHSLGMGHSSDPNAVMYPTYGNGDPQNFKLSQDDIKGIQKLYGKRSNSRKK
In a further series the target is MMP-9 (Homo sapiens (Human), UniProt P14780). The series is described as follows: Enzyme inhibition studies, MMP-9 catalytic domain. The series is classed as biochemical. As to conditions: for residence time: reciprocal of koff.
MMP-9, sequence (P14780 107-444): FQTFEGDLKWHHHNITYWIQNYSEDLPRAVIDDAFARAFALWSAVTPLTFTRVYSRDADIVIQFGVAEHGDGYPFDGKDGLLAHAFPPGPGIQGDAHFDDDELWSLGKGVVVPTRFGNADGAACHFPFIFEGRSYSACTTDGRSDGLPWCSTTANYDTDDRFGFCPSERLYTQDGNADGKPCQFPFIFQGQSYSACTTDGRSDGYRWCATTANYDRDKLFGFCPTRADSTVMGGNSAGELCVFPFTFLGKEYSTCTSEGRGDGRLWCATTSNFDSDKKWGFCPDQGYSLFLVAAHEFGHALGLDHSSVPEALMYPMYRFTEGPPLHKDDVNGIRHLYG
For the next series, the target named is MMP-2 (Homo sapiens (Human), UniProt P08253). Nature of the series: Enzyme inhibition studies, MMP-2. The series is classed as biochemical.
MMP-2, sequence (P08253 110-660): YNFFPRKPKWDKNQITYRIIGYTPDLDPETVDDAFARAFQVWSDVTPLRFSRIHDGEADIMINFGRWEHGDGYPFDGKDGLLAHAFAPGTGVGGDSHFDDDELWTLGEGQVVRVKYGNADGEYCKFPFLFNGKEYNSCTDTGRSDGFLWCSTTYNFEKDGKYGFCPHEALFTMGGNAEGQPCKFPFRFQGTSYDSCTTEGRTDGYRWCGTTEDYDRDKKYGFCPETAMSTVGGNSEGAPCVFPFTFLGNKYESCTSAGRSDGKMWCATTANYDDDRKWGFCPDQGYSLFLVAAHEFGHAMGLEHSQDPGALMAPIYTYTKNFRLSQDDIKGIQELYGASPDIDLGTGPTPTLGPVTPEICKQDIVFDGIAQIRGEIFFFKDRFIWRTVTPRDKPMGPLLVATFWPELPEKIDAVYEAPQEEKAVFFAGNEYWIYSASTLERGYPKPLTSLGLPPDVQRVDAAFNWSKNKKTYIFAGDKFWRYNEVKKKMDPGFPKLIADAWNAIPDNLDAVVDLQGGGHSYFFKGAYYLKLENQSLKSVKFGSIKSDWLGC
The next series is described as follows: in vivo. As to conditions: male, CD-1, mouse, iv, 5 mg/kg.
Another series has as its target MMP-14 (Homo sapiens (Human), UniProt P50281). Nature of the series: Enzyme inhibition studies, MMP-14 catalytic domain. The series is classed as biochemical.
In another series the target is MMP-3 (Homo sapiens (Human), UniProt P08254). The series is described as follows: Enzyme inhibition studies, MMP-3 catalytic domain. The series is classed as biochemical.
MMP-3, sequence (P08254 100-272): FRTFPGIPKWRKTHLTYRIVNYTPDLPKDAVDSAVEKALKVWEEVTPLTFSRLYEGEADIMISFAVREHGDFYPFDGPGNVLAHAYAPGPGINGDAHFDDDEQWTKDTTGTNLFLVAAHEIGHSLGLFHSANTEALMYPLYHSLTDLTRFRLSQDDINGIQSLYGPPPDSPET
The nature of series [3]: Stability in buffers of the kinetic assays. The series is classed as physicochemical. The source says:
Human recombinant active MMP-2 and MMP-7, and the catalytic domains of MMP-3 and MMP-14/MT1-MMP were purchased from EMD Chemicals, Inc. (San Diego, Calif., USA); human recombinant catalytic domains of MMP-1, MMP-8, and MMP-9 were purchased from Enzo Life Sciences, Inc. (Farmingdale, N.Y., USA); human recombinant active ADAM9 and ADAM10 were purchased from R&D Systems (Minneapolis, Minn., USA). Fluorogenic substrates MOCAc-Pro-Leu-Gly-Leu-A2pr(Dnp)-Ala-Arg-NH2 (for MMP-2, MMP-7, MMP-9 and MMP-14) and MOCAc-Arg-Pro-Lys-Pro-Val-Glu-Nva-Trp-Arg-Lys(Dnp)-NH2 (for MMP-3) were purchased from Peptides International (Louisville, Ky., USA); Mca-KPLGL-Dpa-AR-NH2 (for MMP-1, MMP-8 and ADAM10) and Mca-PLAQAV-Dpa-RSSSR-NH2 (for ADAM9) were purchased from R&D Systems (Minneapolis, Minn., USA). […] Inhibitor stock solutions (10 mM) were prepared fresh in DMSO before enzyme inhibition assays. We followed the same methodology for enzyme inhibition studies as reported by Page-McCaw et al. (Nat. Rev. Mol. Cell Biol. 2007, 8, 221-233). Enzyme inhibition studies were carried out using a Cary Eclipse fluorescence spectrophotometer (Varian, Walnut Creek, Calif., USA). Compounds 4, 5, 6 and 7 were stable in the buffers that were used in the kinetic assays.

Series [4] in a line: Water solubility (filtrate of saturated aqueous solution, UPLC-MRM).
Setting [5] is: 2 min after 5 mg/kg single iv, mice.
[6] abbreviates: 5 min after 5 mg/kg single iv, mice.
Where [7] appears, read: 10 min after 5 mg/kg single iv, mice.
[8] abbreviates: 30 min after 5 mg/kg single iv, mice.
[9] abbreviates: 60 min after 5 mg/kg single iv, mice.
[10] abbreviates: 90 min after 5 mg/kg single iv, mice.
[11] abbreviates: 120 min after 5 mg/kg single iv, mice.
Where [12] appears, read: 240 min after 5 mg/kg single iv, mice.
Setting [13] is: catalytic domain, slow-binding, Ki from koff/kon, read-out: Ki.
Setting [14] is: 2 min after 5 mg/kg single iv, mice, HCl salt.
Setting [15] is: male, CD-1, mouse, in vivo, 5 mg/kg.
Setting [16] is: male, CD-1, mouse, in vivo, iv, 5 mg/kg.
The mark [17] stands for this setting: plasma, 5 mg/kg single iv, mice.

MMP-1, sequence (P03956 98-276): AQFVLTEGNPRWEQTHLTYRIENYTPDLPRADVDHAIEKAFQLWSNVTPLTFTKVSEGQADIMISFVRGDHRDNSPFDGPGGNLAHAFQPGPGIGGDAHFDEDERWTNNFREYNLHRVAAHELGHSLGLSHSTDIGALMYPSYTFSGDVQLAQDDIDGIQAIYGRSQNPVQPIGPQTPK
MMP-8, sequence (P22894 100-262): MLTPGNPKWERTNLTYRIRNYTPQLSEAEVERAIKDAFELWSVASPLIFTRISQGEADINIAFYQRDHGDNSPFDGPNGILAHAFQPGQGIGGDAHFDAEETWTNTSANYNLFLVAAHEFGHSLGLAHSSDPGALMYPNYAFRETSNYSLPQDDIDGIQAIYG
Experimental for in vivo: as §1, §2, §3

Usually inhibition stands for the share of the control response that was lost under treatment. As to `O=S(=O)(CC1CS1)c1ccc(Oc2ccccc2)cc1` (stereo not drawn) [Compound 1, reference compound], the inhibition at 20 µM on ADAM10 (at 20 μM, read-out: Inhibition) worked out at 34%; on ADAM9 (at 20 μM, read-out: Inhibition), 36%.
The term solubility denotes how much of the substance goes into solution per volume. A high value points to much dissolved substance. By kon is commonly meant the rate constant with which the complex forms. Lower therefore signals slow association. What is called Ki is the dissociation constant of the complex between target and ligand, obtained from inhibition or displacement. A word on the koff: it is the rate constant with which the complex falls apart. By AUC(0-inf) is commonly meant total exposure, with the tail of the curve extrapolated. Higher therefore signals high exposure. By AUC(0-t) is commonly meant exposure summed from dosing to a finite time, without extrapolation to infinity. Usually Vd stands for a proportionality between amount in the body and measured concentration, not a real space. Read a low Vd as confinement near the circulation. In general, clearance refers to the volume of plasma or blood freed of the substance per unit of time. On to `NCc1nc(-c2ccc(Oc3ccc(S(=O)(=O)CC4CS4)cc3)cc2)no1` (stereo not drawn) [Compound 4, (3-(4-(4-((Thiiran-2-ylmethyl)sulfonyl)phenoxy)phenyl)-1,2,4-oxadiazol-5-yl)methanamine.HCl salt], for which, in series [1] (5 mg/kg single iv, mice), the “clearance as % of hepatic blood flow” value is 19%. The Brain concentration in series [1] (setting [5]) came out at 9.76±7.24 pmol/mg tissue; in series [1] (setting [6]) it was 5.98 ± 2.94 pmol/mg tissue; in series [1] (setting [7]) it was 3.27 ± 0.14 pmol/mg tissue; in series [1] (setting [8]), 0.249 ± 0.127 pmol/mg tissue; in series [1] (setting [9]) it was 0.0253 ± 0.0221 pmol/mg tissue; in [1] (setting [10]) it was 0.00548 ± 0.00476 pmol/mg tissue. Moreover, the Plasma concentration was 62400 ± 61600 nM in [1] (setting [5]); 2190 ± 90 nM in series [1] (setting [6]); 2140 ± 1510 nM in series [1] (setting [7]); 97 ± 90 nM and 97 ± 92 nM in series [1] (setting [8]); 86.3 ± 30.3 nM in series [1] (setting [9]); 71.6 ± 50 nM in [1] (setting [10]). Besides, the Plasma concentration in series [1] (setting [11]) is 31.8 ± 31.1 nM; in series [1] (setting [12]), 14.9 ± 12.9 nM. Moreover, in [1], the “crossing of the blood-brain barrier” value was “cross the blood-brain barrier”. Besides, the inhibition at 100 µM came out at 1% against ADAM10; 8% against MMP-1; 8% on MMP-7; 17% at MMP-3 (at 100 μM); 5% against ADAM9. The solubility in the series “physchem” stood at 0.61 mg/mL. For the same compound, the AUC0-last in series [2] was found to be 108 pmol·min/mg. In addition, in [2], the “AUC0-∞” value was determined as 108 pmol·min/mg. In addition, in series [2], the AUCbrain/AUCplasma is 0.138. In addition, at MMP-8, 50 µM produced 24% inhibition. The kon on MMP-9 came to 32 ± 2.3 M⁻¹ s⁻¹; on MMP-2, 521 ± 22 M⁻¹ s⁻¹; on MMP-14, 121 ± 11 M⁻¹ s⁻¹. Also, the inhibitory constant (Ki) at MMP-9 (setting [13]) was 34 µM; on MMP-2 (slow-binding, Ki calculated from koff/kon, read-out: Ki) it was 0.63 ± 0.06 µM; on MMP-14 (setting [13]) it was 9.4 µM. The figures for the koff at MMP-9 (read-out: 10^3 koff), at MMP-2 (read-out: 10^3 koff) and on MMP-14 (read-out: 10^3 koff) were 1.1 ± 0.03 s⁻¹, 0.33 ± 0.027 s⁻¹ and 1.14 ± 0.09 s⁻¹, respectively. The residence time was 15.2 ± 0.4 min on MMP-9, 15.2 to 47.4 min at MMP-9 (read-out: residence time), 50.5 ± 4.1 min on MMP-2 (reciprocal of koff) and 14.6 ± 1.1 min on MMP-14 (reciprocal of koff). The AUC(0-inf) in the series “in vivo” was 13.1 µM·h. For the same compound, the AUC(0-t) in “in vivo” was 13 µM·h. The volume of distribution (Vd) in the series “in vivo” worked out at 0.0213 L/kg. Further, in the series “in vivo”, the clearance was found to be 15.8 mL/min/kg. The “stability in the buffers used in the kinetic assays” value in series [3] is “stable”.
As to `N=C(N)Nc1ccc(Oc2ccc(S(=O)(=O)CC3CS3)cc2)cc1` (stereo not drawn) [Compound 7, 1-(4-(4-((Thiiran-2-ylmethyl)sulfonyl)phenoxy)phenyl)guanidine HCl salt], in series [1] (5 mg/kg single iv, mice), the “time brain levels above Ki for MMP-2” value was determined as 120 min, the “time brain levels above Ki for MMP-9” value is reported as 30 min, the “time plasma levels above Ki for MMP-2” value is reported as 90 min and the “time plasma levels above Ki for MMP-9” value is 60 min. Also, in series [1] (setting [14]), the Brain concentration is reported as 0.577±0.560 pmol/mg tissue and the Plasma concentration was 12600 ± 10900 nM. In [1] (setting [6]), this compound returned a Brain concentration of 0.476 ± 0.470 pmol/mg tissue. Besides, in series [1] (setting [7]), the Brain concentration is reported as 0.216 ± 0.071 pmol/mg tissue. The Brain concentration in [1] (setting [8]) stood at 0.117 ± 0.024 pmol/mg tissue. In series [1] (setting [9]), this compound came in with a Brain concentration of 0.0228 ± 0.0033 pmol/mg tissue. The compound further showed a Brain concentration in [1] (setting [10]) of 0.0409 ± 0.0155 pmol/mg tissue. Moreover, the Brain concentration in [1] (setting [11]) worked out at 0.0222 ± 0.0072 pmol/mg tissue. This compound registered a Brain concentration in series [1] (setting [12]) of 0.0161 ± 0.0035 pmol/mg tissue. In [1] (brain, 5 mg/kg single iv, mice), the AUC0-last amounted to 14.3 pmol·min/mg, the “AUC0-∞” value was 17.4 pmol·min/mg, the t1/2α is on record as 47 min and the t1/2β came out at 133 min. For the same compound, the “crossing of the blood-brain barrier” value in series [1] is listed as “cross the blood-brain barrier”. In addition, in series [1] (setting [15]), the concentration at 2 min is 12600 ± 10900 nM, the concentration at 5 min is 4370 ± 2630 nM, the concentration at 10 min was 3920 ± 780 nM and the concentration at 30 min was 482 ± 229 nM. Also, in series [1] (setting [15]), the concentration at 60 min was found to be 119 ± 51 nM, the concentration at 90 min came to 22 ± 8 nM, the concentration at 120 min is 6.3 ± 4.9 nM and the concentration at 240 min came to 3.2 ± 2.66 nM. In [1] (setting [16]), this compound showed an AUC(0-inf) of 2.13 µM·h, an AUC(0-t) of 2.13 µM·h, a Kp of 0.136 and a Vd of 1.08 L/kg. In series [1] (setting [16]), this compound had a clearance of 107 mL/min/kg. Further, in series [1] (setting [17]), the CL was determined as 107 mL/min/kg, the t1/2α is listed as 5.22 min and the t1/2β worked out at 64.2 min. Also, on ADAM10, testing at 100 µM gave an inhibition of 25%. This compound also yielded an inhibition at 100 µM against MMP-1 of 4%. At MMP-7, this compound registered an inhibition at 100 µM of 4%. This compound also returned an Aq. solubility in series [4] of 32 mg/mL. For the same compound, in series [4] (thermodynamic from solid), the solubility is 32 mg/mL. On MMP-14, this compound had a Ki of 0.04 ± 0.002 µM. On MMP-3, this compound came in with a Ki of 19 ± 1 µM. In series [3] (in words), the “stability in the buffers used in the kinetic assays” value is “stable”. In addition, the inhibition at 100 µM against ADAM9 was 14%.
Regarding `COC(=O)Nc1ccc(Oc2ccc(S(=O)(=O)CC3CS3)cc2)cc1` (stereo not drawn) [ND-380], at MMP-9 (read-out: MMP-9 Ki), the Ki amounted to 0.18 ± 0.03 µM.
